Data as given in PubChem BioAssay (NCI).
“And” between values parts separate entries of the source, which are not always exact repeats. Equal values may be shown once.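 These data come from cells grown in 96-well plates and exposed to compound for 48 hours at five concentrations. Abbreviation: GI50, concentration required for 50% inhibition of growth. At the TGI there is no net growth.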

Columns and labels:
Assay in all cases: inhibition of tumour cell growth, NCI panel, 48 h
A549 NSCLC = test system: A549 NSCLC
HCT-116 colon = test system: HCT-116 colon
HCC-2998 colon = test system: HCC-2998 colon
RPMI-8226 leukemia = test system: RPMI-8226 leukemia
OVCAR-3 ovarian = test system: OVCAR-3 ovarian
ACHN renal = test system: ACHN renal
SF-268 CNS = test system: SF-268 CNS
A498 renal = test system: A498 renal
CCRF-CEM leukemia = test system: CCRF-CEM leukemia
SK-MEL-5 melanoma = test system: SK-MEL-5 melanoma

| SMILES | TGI (A549 NSCLC) | TGI (HCT-116 colon) | TGI (HCC-2998 colon) | TGI (RPMI-8226 leukemia) | TGI (OVCAR-3 ovarian) | TGI (ACHN renal) | TGI (SF-268 CNS) | TGI (A498 renal) | TGI (CCRF-CEM leukemia) | TGI (SK-MEL-5 melanoma) | GI50 (A549 NSCLC) | GI50 (HCT-116 colon) | GI50 (HCC-2998 colon) | GI50 (RPMI-8226 leukemia) | GI50 (OVCAR-3 ovarian) | GI50 (ACHN renal) | GI50 (SF-268 CNS) | GI50 (A498 renal) | GI50 (CCRF-CEM leukemia) | GI50 (SK-MEL-5 melanoma) |
| --- | --- | --- | --- | --- | --- | --- | --- | --- | --- | --- | --- | --- | --- | --- | --- | --- | --- | --- | --- | --- |
| c1ccc(-c2nc(-c3ccccc3)c(-c3ccccc3)[nH]2)cc1 | > 100 µM | > 100 µM | > 100 µM | > 72.9 µM | > 100 µM | > 100 µM | > 100 µM | > 100 µM | 36.5 µM | > 100 µM |  |  |  |  |  |  |  |  |  |  |
| O=C(N/N=C/c1ccccc1O)C(=O)Nc1ccc(F)cc1 | > 100 µM | > 100 µM | > 100 µM | > 100 µM | > 100 µM | > 100 µM | > 100 µM | > 100 µM | 13.4 µM | > 100 µM | 3.67 µM | 3.19 µM | 4.61 µM | 7.9 µM | 3.18 µM | 3.02 µM | 2.77 µM | 83.4 µM | 1.35 µM | 5.62 µM |
| CCCCCCCCCCCCSC(=N)N | 29.5 µM | 14.9 µM | 5.62 µM | 10.2 µM | 26.2 µM | 15.9 µM | 25.8 µM | 31.4 µM | 26.1 µM | 28.2 µM | 12.9 µM | 3.86 µM | 2.31 µM | 2.94 µM | 10.3 µM | 3.89 µM | 7.82 µM | 15.3 µM | 8.4 µM | 12.6 µM |
| O=C(O)c1ccc(N/C=C2\C(=O)c3ccccc3OC2O)cc1O (centres undefined) | > 150 µg/mL | 42.7 µg/mL | 45.4 µg/mL | 8.67 µg/mL | 41.9 µg/mL | 84.6 µg/mL | 134 µg/mL | 83.9 µg/mL | 59.6 µg/mL | 37.6 µg/mL | 55.1 µg/mL | 17.9 µg/mL | 24.1 µg/mL | 2.45 µg/mL | 8.41 µg/mL | 29 µg/mL | 21.8 µg/mL | 36.9 µg/mL | 13.8 µg/mL | 17.6 µg/mL |
| C#Cc1c(C(N)=O)ncn1C1OC(COP(=O)(OCc2ccc([N+](=O)[O-])o2)N(C)CCCCCl)C(O)C1O (centres undefined) | > 100 µM | > 100 µM | > 100 µM | > 100 µM | 63.5 µM | > 100 µM | > 100 µM | > 100 µM | > 100 µM | 26.5 µM | 28.5 µM | 38.2 µM | 16.2 µM | 0.0113 µM | 15.1 µM | 45 µM | 45.1 µM | 39.6 µM | 21.9 µM | 2.83 µM |
| O=C1c2c(n(Cc3ccccc3)c(=O)n2Cc2ccccc2)C(=O)N1Cc1ccccc1 | > 100 µM | > 100 µM | > 100 µM | > 100 µM | > 100 µM | > 100 µM | > 100 µM | > 100 µM | > 100 µM | > 100 µM |  |  |  |  |  |  |  |  |  |  |
| CC(=O)O/N=C1/C(c2c(O)[nH]c3cc(Br)ccc23)=Nc2ccccc21 | 3.47 µM | 2.67 µM | 3.08 µM | 5.27 µM | 2.14 µM | 2.18 µM | 3.78 µM | 1.2 µM | 5.37 µM | 1.33 µM | 1.48 µM | 1.05 µM | 1.68 µM | 2.03 µM | 0.771 µM | 0.707 µM | 1.62 µM | 0.429 µM | 1.38 µM | 0.524 µM |
| NS(=O)(=O)c1cccc(N=Cc2c(O)[nH]c3ccccc23)c1 | > 25 µM | > 25 µM | > 25 µM | > 25 µM | > 25 µM | > 25 µM | > 25 µM | > 25 µM | > 25 µM | > 25 µM | > 25 µM | > 25 µM | > 25 µM | > 25 µM | > 25 µM | > 23.1 µM | > 25 µM | > 25 µM | > 25 µM | > 25 µM |
| Cc1cc(Cc2cc(C)cc(C(C)(C)C)c2O)c(O)c(C(C)(C)C)c1 | 13.2 µM | 11.7 µM | 15.9 µM | 57.2 µM | 13.1 µM | 15.4 µM | 17.3 µM | 25.5 µM | > 100 µM | 22.4 µM | 3.86 µM | 3.13 µM | 4.3 µM | 7.55 µM | 3.97 µM | 4.59 µM | 5.06 µM | 12.9 µM | 9.98 µM | 10.6 µM |
| COc1cc2c(cc1O)CC13CCC(=O)N1CCc1cc(OC)c(O)c-2c13 (centres undefined) | > 68.1 µM | > 68.1 µM | > 68.1 µM | > 68.1 µM | > 68.1 µM | > 68.1 µM | > 68.1 µM | > 68.1 µM | > 68.1 µM | > 68.1 µM |  |  |  |  |  |  |  |  |  |  |
| CCOC(=O)C(=Cc1ccc(C(=O)OC)cc1)C(=O)OCC | 12.4 µM | 12.5 µM | 12.1 µM | 4.73 µM | 9.57 µM | 3.48 µM | 6.51 µM | 26 µM | 4.71 µM | 4.64 µM |  |  |  |  |  |  |  |  |  |  |
| N#CCc1ncc(-c2ccc(C(F)(F)F)cc2)c(NC2CCCCCC2)n1 | > 10 µM | > 10 µM | > 10 µM | > 10 µM | > 10 µM | > 10 µM | > 10 µM | > 10 µM | > 10 µM | > 10 µM | > 10 µM | > 10 µM | > 10 µM | > 10 µM | > 10 µM | > 10 µM | > 10 µM | > 10 µM | > 10 µM | > 10 µM |
| CC(=O)OCC1OC(OC2CC3C(C)(C)C(O)CC[C@]3(C)C3CCC45CC4(CC[C@H]5C(C)CC(O)C4OC4(C)C)[C@]23C)C(O)C(O)C1O (some centres undefined) | 18.5 µM and 27.1 µM | 16.3 µM and 21.8 µM | 13.8 µM and 21.3 µM | 2.41 µM and 7.16 µM | 12.5 µM and 17.6 µM | 15.5 µM and 33.6 µM | 13.4 µM and 28.4 µM | 51.8 µM | 6.74 µM and 6.72 µM | 10.2 µM and 17.6 µM | 12.3 µM | 3.57 µM | 8.26 µM | 2.49 µM | 4.26 µM | 19.2 µM | 11 µM |  | 2.56 µM | 5.65 µM |
| C=CCC1(O)c2cccc(NCCO)c2C(=O)c2c(NCCO)cccc21 | > 100 µM | > 100 µM | > 100 µM | > 100 µM | > 100 µM | > 100 µM | > 100 µM | > 100 µM | > 100 µM | > 100 µM | > 100 µM | > 100 µM | > 100 µM | > 100 µM | > 100 µM | > 100 µM | > 100 µM | > 100 µM | > 100 µM | > 100 µM |
